# Data reported in US11478445B2, “Method for treating acute myeloid leukemia” (Bionomics Limited, priority 2017, dated 2022).
# Entries after “also recorded” stand apart in the source; their conditions may differ.
# Key:
# Assay type in all cases: cell-based
# Noxa = assay: Western blot for Noxa in AML cell lines; conditions: six AML cell lines, 10 nM and 100 nM, 8 h
# Description: (§1) Cells were harvested (4×10^6 for cell lines and 7×10^6 for L-AMLs) and washed 3 times with cold PBS (centrifuged at 4° C.). Lysis buffer was prepared with NP40 Cell Lysis Buffer (ThermoFisher Scientific), cOmplete protease inhibitor (Roche, 046993116001), PhosStop (Roche, 04906837001) and Pefablock (Roche, 11585916001) at the recommended concentrations. After the washes, cells were resuspended in 50 μL of lysis buffer, vortexed and incubated on ice for 30 min. Samples were vortexed every 10 min. After 30 min incubation, samples were centrifuged at 14,000 g at 4° C. for 10 min and supernatants were transferred to tubes. Protein was quantified using the DC Protein Assay kit (BioRad) per manufacturer's protocol. 50 μg of cell lines lysate or 20 μg of L-AML6 lysate were loaded for SDS-PAGE. Protein was transferred from the gels into PVDF membranes using a semi dry transfer apparatus (BioRad). […]
# (§2) Once it was determined that this group of AML cell lines are highly sensitive to EX 1, the mechanism underlying this response was investigated. […]
# (§3) Therefore, cells were treated with a range of doses of EX 1 for 8 h and 24 h, as described above, before protein extraction was performed. […] Noxa was readily detected in control lysate prepared from HEK293 cells.
# AML cell lines [1] = assay: Total ROS assay (CM-H2DCFDA, flow cytometry)
# Description: 1.25×10^5 cells were harvested into 5 mL tubes and washed with PBS. […] All tubes were incubated at 37° C. for 20 min and then cells washed 3 times with PBS. Cells were resuspended in 300 μL PBS and analysed on an LSRFortessa (BD Biosciences) flow cytometer. Results were analysed with FCS Express 4 Flow Research Edition software (De Novo Software).
# (§4) For that, cells were plated at 10^6 cells/mL and treated with vehicle (DMSO) alone or a range of doses of EX 1 (0.1 nM, 1 nM, 10 nM and 100 nM) for 6 h, 8 h and 24 h. Cells were harvested for detection of ROS and superoxide anion (O2^·−) levels at 6 h and 24 h, for protein extraction at 8 h and 24 h, and for cell cycle analysis at 24 h.
# (§5) Total ROS levels were measured by flow cytometry using the fluorogenic dye CM-H2DCFDA at a final concentration of 5 μM. Mitochondria superoxide anion (O2^·−) levels were measured by flow cytometry using MitoSox, also at a final concentration of 5 μM.
# P-JNK^Thr183/Tyr185 = assay: Western blot for P-JNK in AML cell lines; conditions: all cell lines, 8 h, 10 nM and 100 nM
# Description: as §1, §2, §3
# AML cell lines [2] = assay: Mitochondria O2.- assay (MitoSox, flow cytometry)
# Description: 1.25×10^5 cells were harvested into 5 mL tubes and washed with PBS. Cell pellets were resuspended in 180 μL of PBS and 20 μL of freshly prepared 5 mM MitoSox (Molecular Probes, M36008) solution added to each tube. All tubes were incubated at 37° C. for 20 min and then cells washed 3 times with PBS. Cells were resuspended in 300 μL PBS and analysed on an LSRFortessa (BD Biosciences) flow cytometer. Results were analysed with FCS Express 4 Flow Research Edition software (De Novo Software).
# as §4, §5
compound,measurement,setting,value
"COc1cc(C(=O)c2c(C)oc3c(O)c(OC)ccc23)cc(OC)c1OC [EX 1, 2-Methyl-7-hydroxy-3-(3,4,5-trimethoxybenzoyl)-6-methoxybenzofuran]",Noxa induction,Noxa,could only be detected in OCI-AML3 and ME1; also recorded: only observed in OCI-AML3 and ME1 lines
same,total ROS levels,"AML cell lines [1]; OCI-AML3, 24 h",dose response reduction in total ROS
same,total ROS levels,"AML cell lines [1]; the other cell lines (not OCI-AML3), 6 h and 24 h",none of the other cell lines showed any changes in total ROS levels
same,P-JNK induction,P-JNK^Thr183/Tyr185,strongly induced in all cell lines; also recorded: induced in all cell lines
same,mitochondria O2.- levels,"AML cell lines [2]; HL60 and ME1, 6 h",showed a decrease in mitochondria O2^·− levels
same,mitochondria O2.- levels,AML cell lines [2]; KG1,did not respond to the drug treatment with any detectable changes
same,mitochondria O2.- levels,"AML cell lines [2]; ME1, 24 h",even greater effect observed at 24 h
same,mitochondria O2.- levels,"AML cell lines [2]; MV4;11 and MOLM13, 24 h",increased mitochondria O2^·− levels observed at 24 h only
same,mitochondria O2.- levels,"AML cell lines [2]; OCI-AML3, 6 h",slight decrease
same,mitochondria O2.- levels,"AML cell lines [2]; OCI-AML3, 24 h",appeared to have increased O2^·− levels
